{"source": "paper PMC3183387", "about": "(Journal of the American Chemical Society, 2011)", "key": {"[1]": {"system": "Tyr181Cys Variant Strain of HIV-1", "settings": "result in words; cited from earlier work"}, "[2]": {"system": "variant HIV strain that encodes the Tyr181Cys (Y181C) mutation of HIV-RT", "test": "Anti-HIV activity against Tyr181Cys variant strain in MT-2 cells", "format": "cell-based, HIV-1", "settings": "result in words"}}, "data": [{"smiles": "CC(C)Nc1cccnc1N1CCN(C(=O)c2cc3cc(NS(C)(=O)=O)ccc3[nH]2)CC1", "note": "[delavirdine]", "values": [{"measurement": "activity towards Y181C containing variants", "setting": "[1]", "result": "do not have useful activity"}]}, {"smiles": "Cc1ccnc2c1NC(=O)c1cccnc1N2C1CC1", "note": "[nevirapine]", "values": [{"measurement": "activity against viral strains containing the Tyr181Cys (Y181C) mutation", "setting": "[2]", "result": "no activity"}, {"measurement": "activity towards Y181C containing variants", "setting": "[1]", "result": "do not have useful activity"}]}]}
